Assay results reported in US20230373972A1, “PIPERAZINE DERIVATIVE, PREPARATION METHOD THEREFOR AND USE THEREOF” (Zhejiang Hisun Pharmaceutical Co., Ltd., priority 2020, published 2023).

What follows are molecules tested on human plasma (assay: In-vitro anticoagulation on human plasma (APTT kit, coagulation time)). Details: concentration of the compound when the coagulation time (APTT) was prolonged twice.
Procedure: The following method was used to determine the in-vitro anticoagulation of the compound of the present invention in the human plasma. In the method, an APTT kit of the MediRox company was used to test. The APTT kit was purchased from MediRox (article number MRX930), and the human plasma was prepared internally.
The preparation of the human plasma was briefly described as follows: human plasma was collected in a blood collection tube containing sodium citrate, and centrifuged at 3,000 rpm for 10 minutes at room temperature, and plasma was collected, and packaged separately and stored at −80° C.
An APTT test process was briefly described as follows: a test compound was dissolved in DMSO to prepare a 10 mM storage solution first, then the test compound was diluted with DMSO by a triple gradient, and a final concentration of the test compound in a reaction system ranged from 217 μM to 0.03 μM. 4 μL, of test compounds at different concentrations diluted with DMSO were added to a centrifuge tube containing 180 μL of plasma, and 4 μL of DMSO was added to a blank group, shaken and mixed evenly, and incubated at 37° C. for 5 minutes. Subsequently, an APTT reagent was placed in a reagent holder according to instrument requirements, the incubated plasma sample was placed in a detection position of a coagulation analyzer, and a coagulation time was determined and recorded (s). With a final concentration of the compound as an abscissa and Ratio (Ratio=TiT0, wherein T0 was a coagulation time of a blank control, and Ti was a coagulation time of a compound to be tested) as an ordinate, a coagulation dose-effect curve was drawn by Graph Pad Prisms, and a concentration of the compound when the coagulation time was prolonged twice was calculated, which was namely a CT2 value, as shown in Table 2.

Question: Cn1cc2cc(NC(=O)C(Cc3ccn(C4CC4)n3)N3CC(=O)N(c4cc(Cl)ccc4-n4cc(Cl)nn4)CC3=O)ccc2n1 (centres unmarked) [Example 123, 2-(4-(5-chloro-2-(4-chloro-1H-1,2,3-triazol-1-yl)phenyl)-2,5-dioxopiperazin-1-yl)-3-(1-cyclopropyl-1H-pyrazol-3-yl)-N-(2-methyl-2H-indazol-5-yl)propanamide] was tested. Which “CT2” value did it give?
Answer: Its value is 12.8 µM.

Question: For N#Cc1ccc(NC(=O)C(Cc2ccccc2)N2CC(=O)N(c3cc(Cl)ccc3-n3cnnn3)CC2=O)cc1 (centres unmarked) [Example 16, 2-(4-(5-chloro-2-(1H-tetrazol-1-yl)phenyl)-2,5-dioxopiperazin-1-yl)-N-(4-cyanophenyl)-3-phenylpropanamide], which “CT2” value is on record?
Answer: Its value is 15.6 µM.

Question: For CNC(=O)c1ccc(NC(=O)C(Cc2ccc(F)cc2)N2CC(=O)N(c3cc(Cl)ccc3-n3cc(Cl)nn3)CC2=O)cc1F (centres unmarked) [Example 134, 4-(2-(4-(5-chloro-2-(4-chloro-1H-1,2,3-triazol-1-yl)phenyl)-2,5-dioxopiperazin-1-yl)-3-(4-fluorophenyl)propanamido)-2-fluoro-N-methylbenzamide], which “CT2” value is on record?
Answer: Its value is 19.4 µM.

Question: With COCCC(C(=O)Nc1ccc2nn(C)cc2c1)N1CC(=O)N(c2cc(Cl)ccc2-n2cnnn2)CC1=O (centres unmarked) [Example 32, 2-(4-(5-Chloro-2-(1H-tetrazol-1-yl)phenyl)-2,5-dioxopiperazin-1-yl)-4-methoxy-N-(2-methyl-2H-indazol-5-yl)butanamide] as the molecule, how does the “CT2” value read?
Answer: The value was 6.3 µM.

Question: With NC(=O)c1ccc(NC(=O)C(Cc2ccc(F)cc2)N2CC(=O)N(c3cc(Cl)ccc3-n3cc(Cl)nn3)CC2=O)cc1F (centres unmarked) [Example 135, 4-(2-(4-(5-chloro-2-(4-chloro-1H-1,2,3-triazol-1-yl)phenyl)-2,5-dioxopiperazin-1-yl)-3-(4-fluorophenyl)propanamido)-2-fluorobenzamide] as the molecule, how does the “CT2” value read?
Answer: Its value is 19.2 µM.

Question: How did the “CT2” value turn out when Cn1cc2cc(NC(=O)C(CC3CCC3)N3CC(=O)N(c4cc(Cl)ccc4-n4cc(Cl)nn4)CC3=O)ccc2n1 (centres unmarked) [Example 116, 2-(4-(5-chloro-2-(4-chloro-1H-1,2,3-triazol-1-yl)phenyl)-2,5-dioxopiperazin-1-yl)-3-cyclobutyl-N-(2-methyl-2H-indazol-5-yl)propanamide] was run?
Answer: Its value is 14.0 µM.

Question: Which “CT2” value does the source give for Cn1cc2cc(NC(=O)C(CCOC(C)(C)C)N3CC(=O)N(c4cc(Cl)ccc4-n4cc(Cl)nn4)CC3=O)ccc2n1 (centres unmarked) [Example 122, 4-(tert-butoxy)-2-(4-(5-chloro-2-(4-chloro-1H-1,2,3-triazol-1-yl)phenyl)-2,5-dioxopiperazin-1-yl)-N-(2-methyl-2H-indazol-5-yl)butanamide] here?
Answer: Its value is 18.7 µM.

Question: How did the “CT2” value turn out when [2H]C([2H])([2H])n1ccc(CC(C(=O)Nc2ccc3nn(C)cc3c2)N2CC(=O)N(c3cc(Cl)ccc3-n3cc(Cl)nn3)CC2=O)n1 (centres unmarked) [Example 133, 2-(4-(5-chloro-2-(4-chloro-1H-1,2,3-triazol-1-yl)phenyl)-2,5-dioxopiperazin-1-yl)-N-(2-methyl-2H-indazol-5-yl)-3-(1-(methyl-d3)-1H-pyrazol-3-yl)propanamide] was run?
Answer: Its value is 14.8 µM.

Question: For Cn1cc2cc(NC(=O)C(Cc3ccncc3)N3CC(=O)N(c4cc(Cl)ccc4-n4cc(Cl)nn4)CC3=O)ccc2n1 (centres unmarked) [Example 105, 2-(4-(5-chloro-2-(4-chloro-1H-1,2,3-triazol-1-yl)phenyl)-2,5-dioxopiperazin-1-yl)-N-(2-methyl-2H-indazol-5-yl)-3-(pyridin-4-yl)propanamide], which “CT2” value is on record?
Answer: Its value is 10.1 µM.

Question: With Cn1cc(CC(C(=O)Nc2ccc3nn(C)cc3c2)N2CC(=O)N(c3cc(Cl)ccc3-n3cc(Cl)nn3)CC2=O)cn1 (centres unmarked) [Example 131, 2-(4-(5-chloro-2-(4-chloro-1H-1,2,3-triazol-1-yl)phenyl)-2,5-dioxopiperazin-1-yl)-3-(1-methyl-1H-pyrazol-4-yl)-N-(2-methyl-2H-indazol-5-yl)propanamide] as the molecule, how does the “CT2” value read?
Answer: The value was 11.5 µM.

Question: For O=C(Nc1ccc2ccnn2c1)C(Cc1ccccc1)N1CC(=O)N(c2cc(Cl)ccc2-n2cnnn2)CC1=O (centres unmarked) [Example 22, 2-(4-(5-Chloro-2-(1H-tetrazol-1-yl)phenyl)-2,5-dioxopiperazin-1-yl)-3-phenyl-N-(pyrazolo[1.5-a]pyridin-6-yl)propanamide], which “CT2” value is on record?
Answer: Its value is 16.0 µM.

Question: For CNC(=O)c1ccc(NC(=O)C(Cc2ccccc2)N2CC(=O)N(c3cc(Cl)ccc3-n3cnnn3)CC2=O)cn1 (centres unmarked) [Example 29, 5-(2-(4-(5-Chloro-2-(1H-tetrazol-1-yl)phenyl)-2,5-dioxopiperazin-1-yl)-3-phenylpropanamido)-N-methylpicolinamide], which “CT2” value is on record?
Answer: The value was 6.7 µM.

Question: How did the “CT2” value turn out when Cn1cc2cc(NC(=O)C(CC3CCC3)N3CC(=O)N(c4cc(Cl)ccc4-n4cnnn4)CC3=O)ccc2n1 (centres unmarked) [Example 39, 2-(4-(5-Chloro-2-(1H-tetrazol-1-yl)phenyl)-2,5-dioxopiperazin-1-yl)-3-cyclobutyl-N-(2-methyl-2H-indazol-5-yl)propanamide] was run?
Answer: The value was 12.7 µM.

Question: How did the “CT2” value turn out when Cn1cc2cc(NC(=O)C(Cc3cccnc3)N3CC(=O)N(c4cc(Cl)ccc4-n4cc(Cl)nn4)CC3=O)ccc2n1 (centres unmarked) [Example 43, 2-(4-(5-Chloro-2-(4-chloro-1H-1,2,3-triazol-1-yl)phenyl)-2,5-dioxopiperazin-1-yl)-N-(2-methyl-2H-indazol-5-yl)-3-(pyridin-3-yl)propanamide] was run?
Answer: Its value is 19.6 µM.

Question: With Cn1cc2cc(NC(=O)C(Cc3cccc(F)c3)N3CC(=O)N(c4cc(Cl)ccc4-n4cc(Cl)nn4)CC3=O)ccc2n1 (centres unmarked) [Example 46, 2-(4-(5-Chloro-2-(4-chloro-1H-1,2,3-triazol-1-yl)phenyl)-2,5-dioxopiperazin-1-yl)-3-(3-fluorophenyl)-N-(2-methyl-2H-indazol-5-yl)propanamide] as the molecule, how does the “CT2” value read?
Answer: Its value is 19.1 µM.

Question: For CNC(=O)c1ccc(NC(=O)C(Cc2ccccc2)N2CC(=O)N(c3cc(Cl)ccc3-n3cc(Cl)nn3)CC2=O)cc1F (centres unmarked) [Example 42, 4-(2-(4-(5-Chloro-2-(4-chloro-1H-1,2,3-triazol-1-yl)phenyl)-2,5-dioxopiperazin-1-yl)-3-phenylpropanamido)-2-fluoro-N-methylbenzamide], which “CT2” value is on record?
Answer: Its value is 16.3 µM.

Question: With Cn1cc2cc(NC(=O)C(Cc3ccn(C(F)F)n3)N3CC(=O)N(c4cc(Cl)ccc4-n4cc(Cl)nn4)CC3=O)ccc2n1 (centres unmarked) [Example 132, 2-(4-(5-chloro-2-(4-chloro-1H-1,2,3-triazol-1-yl)phenyl)-2,5-dioxopiperazin-1-yl)-3-(1-(difluoromethyl)-1H-pyrazol-3-yl)-N-(2-methyl-2H-indazol-5-yl)propanamide] as the molecule, how does the “CT2” value read?
Answer: Its value is 12.7 µM.
